The source of these data is patent publication US11266709B2, “Methods for the regulation of matrix metalloproteinase expression” (Stealth BioTherapeutics Corp, priority 2013, dated 2022).

The nature of data set [1]: Survival during 6 weeks treatment after coronary occlusion. It is filed as in vivo, rat. To be noted: 74 rats randomized to peptide or water, following 6 weeks treatment. The protocol:
Rats were anesthetized, ventilated, and a thoracotomy performed in the left 4th intercostal space. Temperature was maintained at 36° C. by placing the rats on a heating pad during the procedure. The pericardium was excised and the proximal left coronary artery isolated and permanently occluded with a suture. Coronary artery occlusion was confirmed by cyanosis and akinesis of the anterior wall of the ventricle. The chest was closed, air evacuated, and the rats allowed to recover. Analgesia was administered per the veterinarian. An echocardiogram was obtained at approximately 15 minutes post coronary artery occlusion. At 2 hours rats were randomized to receive chronic daily D-Arg-2′6′-Dmt-Lys-Phe-NH2 (delivered subcutaneously by an Alzet Osmotic Pump—3 mg/kg/day) or water. […] Heart rate and blood pressure were measured. A Millar catheter was inserted into the left ventricle and LV systolic pressure, LV end diastolic pressure, +dP/dt, and −dP/dt were measured. […] Postmortem LV volume was measured by filling the LV cavity with fluid and measuring the total fluid. […] Quantitative histologic analysis included: total circumference, scar circumference, non-infarcted wall circumference, total LV area, total LV cavity area, LV wall thickness (at several points), non-infarcted wall thickness; myocardial infarct expansion index. […]

The subject of data set [2] is several mammalian cell types. The following applies: energy-independent manner; cited from earlier work.

Square brackets hold non-standard residues; d marks the D form. Peptide text beside a SMILES is read from it. Dmt = Cc1cc(O)cc(C)c1C[C@H](N)C(=O)O

Regarding `Cc1cc(O)cc(C)c1C[C@H](NC(=O)[C@H](N)CCCNC(=N)N)C(=O)N[C@@H](CCCCN)C(=O)N[C@@H](Cc1ccccc1)C(N)=O` [D-Arg-2′6′-Dmt-Lys-Phe-NH2] (H-[dR][Dmt]KF-NH2), the deaths during treatment entry in data set [1] is reported as “no rats died”.
2′,6′-Dmt-D-Arg-Phe-Lys-NH2: the “penetration of the plasma membrane” value in data set [2] is given as “readily penetrates”.
